Data as given in US20090030086A1, “ANTIMICROBIAL AGENTS” (priority 2005, published 2009).
Converted amounts (≈) assume the structure as drawn.

Assays:
[1] = test system: S. aureus ATCC 29213; assay: Disc diffusion assay (DDA); format: cell-based, Staphylococcus aureus; conditions: Staphylococcus aureus, ATCC29213; S. aureus ATCC 29213; unsupplemented agar; 200 μg per disc (thymoquinone 50 μg, 2,6-dimethoxy-p-benzoquinone 100 μg); read-out: DDA (diameter of zone of inhibition)
In short: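 Paper discs loaded with test compound (usually 200 μg/disc), solvent evaporated ≥30 min, placed on inoculated Mueller-Hinton agar pH 7.2. Incubated aerobically at 37 °C for 24 h; inhibition zone diameter measured and area calculated as π(D/2)^2.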

[2] = test system: S. aureus ATCC 29213; assay: MBC assay; format: cell-based, Staphylococcus aureus
In short: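 Follows an MIC assay; samples sub-cultured onto non-selective agar and inspected visually for growth to give the minimum lethal concentration. Culture on Mueller-Hinton medium, pH 7.2, aerobic, 37° C, 24 hours.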

[3] = test system: S. pyogenes ATCC 12344; assay: Disc diffusion assay (DDA); format: cell-based, Streptococcus pyogenes; conditions: 200 μg per disc
Experimental: (§1) The S. pyogenes strain was cultured and maintained on Mueller-Hinton agar with 5% v/v defibrinated horse blood, and grown in Mueller-Hinton broth supplemented with 5% lysed horse blood (lysed horse blood was prepared as described in the NCCLS M7-A6 Vol. 23 No. 2); cultures were incubated aerobically at 37° C. for 24 hours.
(§2) A sterile paper disc was impregnated with a sample of the test compound and a minimum of 30 minutes allowed for the solvents to evaporate as far as possible. The disc was then placed on an agar plate onto which the test micro-organism had been inoculated. The plate was then incubated under the conditions described above, following which it was examined visually for signs of bacterial growth. If the test compound had antimicrobial activity, a circular zone of no growth would be obtained around the disc. The diameter of this zone of “inhibition” was measured using a ProtoCOL™ automated zone sizer (Synbiosis, Cambridge, UK). In general, a greater diameter and/or area of the zone of inhibition indicates a greater antimicrobial activity in the relevant test compound, although other factors such as test compound mobility through the agar gel may also influence the result.
The area of the zone of inhibition was calculated from the measured zone diameter (D) using the formula π(D/2)^2. […]

[4] = test system: S. pyogenes ATCC 12344; assay: MBC assay; format: cell-based, Streptococcus pyogenes
Experimental: as §1
This assay, normally carried out after an MIC assay, determines the minimum concentration of a compound that is lethal to the micro-organism being tested.
These samples were then individually sub-cultured on non-selective agar medium, under the incubation conditions described above. Following incubation they were examined visually for bacterial growth.
The activity of TBHQ against three other bacterial strains was investigated using MIC, MBC and DDA assays as described above. For the DDA assays, 200 μg of TBHQ was loaded onto each disc, using ethanol as the solvent.

[5] = test system: P. acnes NCTC 737; assay: Disc diffusion assay (DDA); format: cell-based, Propionibacterium acnes; conditions: Cutibacterium acnes, NCTC737; P. acnes NCTC 737; unsupplemented agar; 200 μg per disc (2,6-dimethoxy-p-benzoquinone 100 μg); read-out: DDA (diameter of zone of inhibition)
[6] = test system: P. granulosum PRP-043; assay: Disc diffusion assay (DDA); format: cell-based; conditions: resistance MLS, 200 μg per disc
Experimental: (§3) The Propionibacterium spp organisms were cultured and maintained on Wilkins-Chalgren Anaerobe Medium (agar and broth) at pH 6.0; cultures were incubated anaerobically at 37° C. for 72 hours.
as §2
(§4) The area of the zone of inhibition was calculated from the measured zone diameter (D) using the formula π(D/2)^2.
(§5) For the DDA assays, 200 μg of TBHQ was loaded onto each disc. The solvent used for the TBHQ was ethanol.

[7] = test system: P. granulosum PPR-006; assay: Disc diffusion assay (DDA); format: cell-based; conditions: resistance MLS, 200 μg per disc
Experimental: as §3, §2, §4, §5

[8] = test system: P. granulosum PRP-044; assay: Disc diffusion assay (DDA); format: cell-based; conditions: resistance MLS, 200 μg per disc
Experimental: as §3, §2, §4, §5

[9] = test system: P. granulosum PRP-055; assay: Disc diffusion assay (DDA); format: cell-based; conditions: resistance None, 200 μg per disc
Experimental: as §3, §2, §4, §5

[10] = test system: P. granulosum PRP-005; assay: Disc diffusion assay (DDA); format: cell-based; conditions: resistance MLSK, 200 μg per disc
Experimental: as §3, §2, §4, §5

[11] = test system: P. acnes PRP-046; assay: Disc diffusion assay (DDA); format: cell-based, Propionibacterium acnes; conditions: resistance None, 200 μg per disc
Experimental: as §3, §2, §4, §5

[12] = test system: P. acnes PPR-007; assay: Disc diffusion assay (DDA); format: cell-based, Propionibacterium acnes; conditions: resistance Clin, 200 μg per disc
Experimental: as §3, §2, §4, §5

[13] = test system: P. acnes PRP-026; assay: Disc diffusion assay (DDA); format: cell-based, Propionibacterium acnes; conditions: resistance MLS, 200 μg per disc
Experimental: as §3, §2, §4, §5

[14] = test system: P. acnes PRP-102; assay: Disc diffusion assay (DDA); format: cell-based, Propionibacterium acnes; conditions: resistance Tet/MLS, 200 μg per disc
Experimental: as §3, §2, §4, §5

[15] = test system: P. acnes PRP-053; assay: Disc diffusion assay (DDA); format: cell-based, Propionibacterium acnes; conditions: resistance Tet/MLS, 200 μg per disc
Experimental: as §3, §2, §4, §5

[16] = test system: P. acnes PRP-023; assay: Disc diffusion assay (DDA); format: cell-based, Propionibacterium acnes; conditions: resistance MLSK, 200 μg per disc
Experimental: as §3, §2, §4, §5

[17] = test system: P. acnes PRP-017; assay: Disc diffusion assay (DDA); format: cell-based, Propionibacterium acnes; conditions: resistance MLS, 200 μg per disc
Experimental: as §3, §2, §4, §5

[18] = test system: P. acnes PRP-003; assay: Disc diffusion assay (DDA); format: cell-based, Propionibacterium acnes; conditions: resistance Tet, 200 μg per disc
Experimental: as §3, §2, §4, §5

[19] = test system: P. acnes PRP-008; assay: Disc diffusion assay (DDA); format: cell-based, Propionibacterium acnes; conditions: resistance Clin, 200 μg per disc
Experimental: as §3, §2, §4, §5

[20] = test system: P. acnes PRP-101; assay: Disc diffusion assay (DDA); format: cell-based, Propionibacterium acnes; conditions: resistance Tet/MLS, 200 μg per disc
Experimental: as §3, §2, §4, §5

[21] = test system: P. acnes PRP-004; assay: Disc diffusion assay (DDA); format: cell-based, Propionibacterium acnes; conditions: resistance Tet, 200 μg per disc
Experimental: as §3, §2, §4, §5

[22] = test system: P. acnes PRP-002; assay: Disc diffusion assay (DDA); format: cell-based, Propionibacterium acnes; conditions: resistance Tet/MLS, 200 μg per disc
Experimental: as §3, §2, §4, §5

[23] = test system: P. acnes PRP-068; assay: Disc diffusion assay (DDA); format: cell-based, Propionibacterium acnes; conditions: resistance Ery, 200 μg per disc
Experimental: as §3, §2, §4, §5

## CC(C)(C)c1cc(O)ccc1O [TBHQ, 2-t-butyl hydroquinone]
[1]
  zone of inhibition at 200 µg/disc: 41.8 mm
[2]
  MIC/MBC ratio: 1
[3]
  DDA: 50.67 mm
[4]
  MIC/MBC ratio: 1
[4]; Streptococcus pyogenes, ATCC12344
  MBC: 62.5 to 125 µg/mL (≈ 376 to 752 µM)
[5]
  zone of inhibition at 200 µg/disc: 9.95 mm
[6]
  DDA: 10.56 mm
[7]
  DDA: 20.00 mm
[8]
  DDA: 10.70 mm
[9]
  DDA: 13.07 mm
[10]
  DDA: 0.00 mm
[11]
  DDA: 17.46 mm
[12]
  DDA: 13.43 mm
[13]
  DDA: 8.18 mm
[14]
  DDA: 23.80 mm
[15]
  DDA: 23.49 mm
[16]
  DDA: 23.90 mm
[17]
  DDA: 18.40 mm
[18]
  DDA: 38.01 mm
[19]
  DDA: 14.47 mm
[20]
  DDA: 0.0 mm
[21]
  DDA: 30.32 mm
[22]
  DDA: 28.42 mm
[23]
  DDA: 20.89 mm
